# In patent publication US20260015352A1, “METHYLTRANSFERASE INHIBITOR AND USE THEREOF” (CYTOSINLAB THERAPEUTICS CO., LTD., priority 2022, published 2026):
# Tested on: G401 cells
# Assay: G401 ELISA test
# Format: cell-based
# Conditions: Homo sapiens, G-401; G401 cells treated with compounds for 72 hours; ELISA detecting K27 and H3; read-out: G401_ELISA IC50
# Description: • Plate Reader: Envision (Perkinelmner); plate shaker: IKA MTS 2/4; plate Washer: BioTek microplate wisher 405 select; Cell counter: Counterstar (Ruiyu-biotech); Cell culture incubator: MCO-15AC (ThermoFisher); Pipette: BioHit Multichannel. Pipette: 0.2-10 μL, 10-300 μL, 50-1200 μL; Centrifuge: Thermo Centrifuge ST 40R; Pure water system: Millipore Milli-Q Reference system; Refrigerator: Haier −80 degree, −20 degree, and 4-degree refrigerators; cell cryopreservation box: Mr. Frosty™ Gradient Cooling Box Cat #5100-0001
# • McCoys 5A (Modified) culture medium (ATCC); FBS (Gibco); 0.25% Trypsin/EDTA (Gibco); PBS (Hyclone); Penicillin/Streptomycin(100×) (Gibco); DMSO (Sigma); 384 cell culture plate (Corning); 384 detection plate (Greiner); 96 well plate (compound dilution) (Haimen, Qunchao); T75 Cell Culture Bottle (Corning)
# G401 cells were seeded in a 384-well cell culture plate and incubated overnight at 37° C. in a 5% CO2 cell culture incubator, after which the cells were treated with compounds of different concentrations for 72 hours. The 384-well cell culture plate was taken out and upside down in a centrifuge to centrifugeat 300 rpm for 1 minute. After centrifugation, the 384-well cell culture plate was washed twice with PBS, added with lysis solution and lysed for 60 minutes. Then neutralization buffer was added for mixing and incubation was continued for 30 minutes. 20 ul (for detecting K27) and 10 ul (for detecting H3) of cell lysate were extracted from the 384-well cell culture plate and transferred to a 384 ELISA detection plate and incubate overnight at 4° C. The next day, the 384 ELISA plate was taken out and washed 5 times with TBST in a microplate washer. Then, the plate was added with a blocking solution and sealed at room temperature for 1 hour. The blocking solution was discarded and the primary antibody was added and then the plate was incubated at room temperature for 1 hour. After incubation, the plate was washed with TBST 5 times in a microplate washer, then added with secondary antibody and incubated at room temperature for 1 hour. After incubation, the plate was washed with TBST 5 times in a microplate washer, and finally added with color developer for color development. The plate was read with Envision plate reader. The obtained data was converted into inhibition rate using the following calculation method: % Inhibition rate=100−100*(compound absorbance−positive control absorbance)/(negative control absorbance−positive control absorbance), and then the inhibition rate data was subjected to curve fitting using the “logarithmic (inhibitor) and reaction-variable slope (four parameters)” model in GraphPad Prism 5 software.
# The inhibition rate of the compound was calculated as follows: […]
# The compounds of the present invention were tested according to the above experimental method, and some results were shown in Table 3. The test results were classified by A, B, and C, wherein A represents IC50≤0.1 uM; B represents 0.1 uM<IC50≤1 uM; C represents IC50>1 uM
row,IC50,Structure (SMILES)
1,≤ 100 nM,Cc1ccc2ccc(Nc3ccc([C@H](C)Nc4ncc(CN(CC(=O)O)C5CS(=O)(=O)C5)cn4)cc3F)nc2c1Cl [PA268]
2,100 to 1000 nM,COc1nccc2ccc(Nc3ccc([C@H](C)Nc4ncc(N(C)C(=O)NC5COC5)cn4)cc3F)nc12 [PA217]
3,> 1000 nM,O=C(Cc1cnc(NCc2ccc(Nc3ccc4ccncc4n3)cc2)nc1)NC1COC1 [PA048]
4,100 to 1000 nM,COc1nccc2ccc(Nc3ccc([C@H](C)Nc4ncc(CCNC5CC(F)(F)C5)cn4)cc3F)nc12 [PA223]
5,≤ 100 nM,COc1nccc2ccc(Nc3ccc([C@H](C)Nc4ncc(CNC5CC(C#N)C5)cn4)cc3F)nc12 (stereo partly drawn) [PA196]
6,≤ 100 nM,COc1nccc2ccc(Nc3ccc([C@H](C)Nc4ncc(CNC5C[S+]([O-])C5)cn4)cc3F)nc12 (stereo partly drawn) [PA175]
7,≤ 100 nM,COc1nccc2ccc(Nc3ccc(CNc4ncc(CC(=O)NC5COC5)cn4)c(F)c3)nc12 [PA034]
8,100 to 1000 nM,COc1nccc2ccc(Nc3ccc(CNc4ncc(CCNC5COC5)cn4)cc3)nc12 [PA211]
9,≤ 100 nM,COc1nccc2ccc(Nc3ccc([C@H](C)Nc4ncc(C(C)C5CCS(=O)(=O)CC5)cn4)cc3F)nc12 (stereo partly drawn) [PA262]
10,≤ 100 nM,"Cc1ccc2ccc(Nc3ccc([C@H](C)Nc4ncc(CNC5CS(=O)(=O)C5)cn4)cc3F)nc2c1Cl [PA167, (S)-3-(2-(1-(4-(8-chloro-7-methylquinolin-2-amino)-3-fluorophenyl)ethylamino)pyrimidin-5-ylmethylamino)thietan-1,1-dione]"
11,100 to 1000 nM,COc1nccc2ccc(Nc3ccc(CNc4ncc(CNC5COC5)cn4)cc3)nc12 [PA154]
12,100 to 1000 nM,COc1nccc2ccc(Nc3ccc(CNc4ncc(CNCc5ccon5)cn4)cc3F)nc12 [PA221]
13,100 to 1000 nM,COc1nccc2ccc(Nc3ccc([C@H](C)Nc4ncc(CCc5cc(C#N)n[nH]5)cn4)cc3F)nc12 [PA219]
14,> 1000 nM,O=C(Cc1cnc(NCc2ccc(Nc3ccc4c(Cl)nccc4n3)cc2)nc1)NC1COC1 [PA243]
15,> 1000 nM,C[C@@H](C(=O)NC1COC1)c1cnc(NCc2ccc(Nc3ccc4ccnc(Cl)c4n3)cc2)nc1 [PA055]
16,> 1000 nM,COc1nccc2ccc(Nc3ccc(CNc4ccc(CC(=O)NC5COC5)nc4)cc3)nc12 [PA082]
17,≤ 100 nM,COc1nccc2ccc(Nc3ccc([C@H](C)Nc4ncc(CN5CCN(S(C)(=O)=O)CC5)cn4)cc3F)nc12 [PA189]
18,100 to 1000 nM,COc1nccc2ccc(Nc3ccc([C@H](C)Nc4ncc(C=CC5CCS(=O)(=O)CC5)cn4)cc3F)nc12 [PA213]
19,≤ 100 nM,COc1nccc2ccc(Nc3ccc([C@H](C)Nc4ncc(CNCCC#N)cn4)cc3F)nc12 [PA181]
20,> 1000 nM,COc1nccc2ccc(Nc3ccc(CNc4ncc(CC(=O)NCCO)cn4)cc3)nc12 [PA151]

row,IC50,Structure (SMILES)
1,100 to 1000 nM,O=C(Cc1ccc(NCC23CCC(Nc4ccc5ccnc(Cl)c5n4)(CC2)CC3)nc1)NC1COC1 [PA228]
2,≤ 100 nM,"COc1nccc2ccc(Nc3ccc([C@H](C)Nc4ncc(CC(=O)NC5COC5)cn4)cc3)nc12 [PA061, 2-(2-((1-(4-((8-methoxy-1,7-naphthyridin-2-yl)amino)phenyl)ethyl)amino)pyrimidin-5-yl) acetic acid N-(oxetan-3-yl) acetamide]"
3,≤ 100 nM,COc1nccc2ccc(Nc3ccc([C@H](C)Nc4ncc(C(N)C(=O)NC5COC5)cn4)cc3F)nc12 (stereo partly drawn) [PA205]
4,≤ 100 nM,COc1nccc2ccc(Nc3ccc([C@H](C)Nc4ncc(CNC5CS(=O)(=O)C5)cn4)cc3F)nc12 [PA172]
5,> 1000 nM,COc1nccc2ccc(Nc3ccc(CNc4ncc(CNCCO)cn4)cc3F)nc12 [PA242]
6,≤ 100 nM,COc1nccc2ccc(Nc3ccc([C@H](C)Nc4ncc(CC5CCS(=O)(=O)CC5)cn4)cc3F)nc12 [PA195]
7,≤ 100 nM,COc1nccc2ccc(NC34CCC([C@H](C)Nc5ncc(C(C)C(=O)NC6COC6)cn5)(CC3)CC4)nc12 (stereo partly drawn) [PA168]
8,≤ 100 nM,Cc1ccc2ccc(NC34CCC(C(C)Nc5ncc(CC(=O)NC6COC6)cn5)(CC3)CC4)nc2c1Cl (stereo not drawn) [PA183]
9,100 to 1000 nM,C[C@@H](Nc1ncc(CC(=O)NC2COC2)cn1)C12CCC(Nc3ccc4ccnc(Cl)c4n3)(CC1)CC2 [PA209]
10,> 1000 nM,O=C(Cc1cnc(NCc2ccc(Nc3ccc4cccnc4n3)cc2)nc1)NC1COC1 [PA051]
11,> 1000 nM,COc1nccc2ccc(Nc3ccc(CNc4ncc(CC(=O)NC5COC5)cn4)cn3)nc12 [PA070]
12,100 to 1000 nM,C[C@H](C(=O)NC1COC1)c1cnc(NCc2ccc(Nc3ccc4ccnc(Cl)c4n3)cc2)nc1 [PA054]
13,100 to 1000 nM,COc1nccc2ccc(Nc3ccc(CNc4ncc(NCc5cnoc5)cn4)cc3F)nc12 [PA208]
14,100 to 1000 nM,COc1nccc2ccc(Nc3ccc(CNc4ncc(CNCc5cocn5)cn4)cc3F)nc12 [PA239]
15,≤ 100 nM,COc1nccc2ccc(Nc3ccc(CNc4ncc(CNCc5ccno5)cn4)cc3F)nc12 [PA258]
16,100 to 1000 nM,COc1nccc2ccc(Nc3ccc([C@H](C)Nc4ncc(CC(=O)NC5CC(F)(F)C5)cn4)cc3F)nc12 [PA216]
17,100 to 1000 nM,COc1nccc2ccc(NC34CCC(CNc5ncc(CC(=O)NC6COC6)cn5)(CC3)OC4)nc12 [PA229]
18,> 1000 nM,COc1nccc2ccc(Nc3ccc([C@@H](CO)Nc4ncc(CC(=O)NC5COC5)cn4)cc3F)nc12 [PA256]
19,≤ 100 nM,COc1nccc2ccc(NC34CCC(CNc5ncc([C@@H](C)C(=O)NC6COC6)cn5)(CC3)CC4)nc12 [PA077]
20,100 to 1000 nM,COc1nccc2ccc(Nc3ccc([C@H](C)Nc4ccc(NC(=O)NC5COC5)cn4)cc3F)nc12 [PA238]

row,IC50,Structure (SMILES)
1,100 to 1000 nM,COc1nccc2ccc(Nc3ccc(CNc4ncc(CC(N)=O)cn4)cc3F)nc12 [PA231]
2,> 1000 nM,COc1ccc2ccc(Nc3ccc(CNc4ncc(CC(=O)NC5COC5)cn4)cc3)nc2n1 [PA073]
3,≤ 100 nM,C[C@H](Nc1ncc(CNCc2cnoc2)cn1)C12CCC(Nc3ccc4ccnc(Cl)c4n3)(CC1)CC2 [PA188]
4,≤ 100 nM,COc1nccc2ccc(NC34CCC(CNc5ncc(C(C)C(=O)NC6COC6)cn5)(CC3)CC4)nc12 (stereo not drawn) [PA076]
5,100 to 1000 nM,"COc1nccc2ccc(Nc3ccc([C@@H](C)Nc4ncc(CC(=O)NC5COC5)cn4)cc3)nc12 (single isomer, unassigned) [PA062, 2-(2-((1-(4-((8-methoxy-1,7-naphthyridin-2-yl)amino)phenyl)ethyl)amino)pyrimidin-5-yl) acetic acid N-(oxetan-3-yl) acetamide]"
6,≤ 100 nM,CC(Nc1ncc(CC(=O)N(CCC#N)C2COC2)cn1)C12CCC(Nc3ccc4ccnc(Cl)c4n3)(CC1)CC2 (stereo not drawn) [PA171]
7,≤ 100 nM,C[C@H](Nc1ncc(CNCCC#N)cn1)C12CCC(Nc3ccc4ccnc(Cl)c4n3)(CC1)CC2 [PA170]
8,100 to 1000 nM,COc1nccc2ccc(Nc3ccc([C@H](C)Nc4ncc([C@@H](C)C(=O)NC5COC5)cn4)cc3F)nc12 [PA225]
9,100 to 1000 nM,COc1nccc2ccc(Nc3ccc(CNc4ncc(CC(=O)N5CCC(C#N)CC5)cn4)cc3F)nc12 [PA224]
10,≤ 100 nM,COc1nccc2ccc(Nc3ccc([C@H](C)Nc4ncc(CNC5CCS(=O)(=O)CC5)cn4)cc3F)nc12 [PA261]
11,100 to 1000 nM,COc1nccc2ccc(Nc3ccc(CNc4ncc(CC(=O)N5CCOCC5)cn4)cc3F)nc12 [PA226]
12,> 1000 nM,"C[C@H](Nc1ncc(CNC2CS(=O)(=O)C2)cn1)c1ccc(Nc2ccc3ccnc(Cl)c3n2)c(F)c1 (single isomer, unassigned) [PA248]"
13,> 1000 nM,Cn1ccc2ccc(Nc3ccc(CNc4ncc(CC(=O)NC5COC5)cn4)cc3)nc2c1=O [PA255]
14,100 to 1000 nM,COc1nccc2ccc(Nc3ccc([C@H](C)Nc4ccc(CC(=O)NC5COC5)cn4)cc3F)nc12 [PA233]
15,≤ 100 nM,COc1nccc2ccc(Nc3ccc(CNc4ncc(CC(=O)NC5COC5)cn4)cc3F)nc12 [PA153]
16,> 1000 nM,COc1nccc2ccc(Nc3ccc(CNc4ncc(CNCC5CCOCC5)cn4)cc3F)nc12 [PA252]
17,≤ 100 nM,COc1nccc2ccc(Nc3ccc(CNc4ncc(CC(=O)NC5COC5)cn4)cc3)nc12 [PA001]
18,> 1000 nM,COc1nccc2ccc(Nc3ccc(CNc4ncc(N5CCC(OC)C5)cn4)cc3F)nc12 (stereo not drawn) [PA244]
19,≤ 100 nM,CCN(Cc1cnc(N[C@@H](C)c2ccc(Nc3ccc4ccc(C)c(Cl)c4n3)c(F)c2)nc1)C1CS(=O)(=O)C1 [PA267]
20,≤ 100 nM,C[C@H](Nc1ncc(C(NC2CS(=O)(=O)C2)C(=O)OC(C)(C)C)cn1)C12CCC(Nc3ccc4ccnc(Cl)c4n3)(CC1)CC2 (stereo partly drawn) [PA257]
